Test results from patent US10857139B2, “Substituted diazaspiroalkanes as androgen receptor modulators” (The Regents of the University of California, priority 2006, dated 2020).

Legend:
[1] = biological target: T1, androgen receptor (AR) (Homo sapiens, UniProt P10275, T878A); experiment: Secreted PSA induced by R1881 in hormone sensitive (HS) LNCaP cells (PSA ELISA); assay type: cell-based; conditions: FIG. 1, R1881, 5 days incubation
T1 construct: endogenous in cells; host or cells: LNCaP cells
T1 sequence (P10275 1-920 T878A): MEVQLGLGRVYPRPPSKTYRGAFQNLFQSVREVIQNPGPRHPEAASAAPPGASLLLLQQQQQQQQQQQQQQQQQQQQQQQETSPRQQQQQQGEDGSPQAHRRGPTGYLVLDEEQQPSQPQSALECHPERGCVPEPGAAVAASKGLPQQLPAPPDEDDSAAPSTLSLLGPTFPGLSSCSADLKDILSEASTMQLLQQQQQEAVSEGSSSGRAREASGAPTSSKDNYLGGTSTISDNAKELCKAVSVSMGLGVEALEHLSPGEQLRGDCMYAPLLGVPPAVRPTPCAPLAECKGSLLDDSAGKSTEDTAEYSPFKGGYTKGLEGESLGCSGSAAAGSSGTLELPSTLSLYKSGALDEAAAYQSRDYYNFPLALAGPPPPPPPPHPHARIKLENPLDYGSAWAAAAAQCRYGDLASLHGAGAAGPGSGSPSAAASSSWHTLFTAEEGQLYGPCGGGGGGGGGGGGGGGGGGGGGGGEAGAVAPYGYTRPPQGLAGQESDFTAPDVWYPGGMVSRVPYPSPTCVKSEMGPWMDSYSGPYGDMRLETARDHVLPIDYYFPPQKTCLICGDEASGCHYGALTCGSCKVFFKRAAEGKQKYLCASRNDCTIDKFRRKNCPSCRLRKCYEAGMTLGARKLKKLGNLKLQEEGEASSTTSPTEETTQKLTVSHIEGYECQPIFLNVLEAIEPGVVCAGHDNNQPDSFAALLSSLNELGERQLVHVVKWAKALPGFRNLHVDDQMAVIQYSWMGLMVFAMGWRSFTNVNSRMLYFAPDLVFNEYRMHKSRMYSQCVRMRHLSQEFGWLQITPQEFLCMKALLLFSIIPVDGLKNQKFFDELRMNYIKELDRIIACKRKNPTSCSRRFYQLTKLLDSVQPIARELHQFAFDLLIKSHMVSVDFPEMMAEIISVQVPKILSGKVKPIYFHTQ

[2] = test system: androgen receptor (AR); experiment: Secreted PSA induced by R1881 in hormone refractory (HR) LNCaP/AR cells (PSA ELISA); assay type: cell-based; conditions: FIG. 3, R1881, 5 days incubation
[3] = test system: LNCaP cells; experiment: MTS assay, growth inhibition of HS cancer cells; assay type: cell-based; conditions: FIG. 2
Method: The biological activity of the compound of formula II was measured by secreted levels of prostate specific antigen (PSA). It is well established that PSA levels are indicators of AR activities in prostate cancer. […] After 5 days of incubation, secreted PSA levels were assayed using PSA ELISA kits (American Qualex, San Clemente, Calif.) (See FIG. 1 and FIG. 3). The MTS assay was also used to examine the growth inhibition of the compounds of formula II (See FIG. 2).

[4] = test system: LNCaP-AR tumors; experiment: LNCaP-AR xenograft tumor growth in SCID mice; assay type: in vivo; conditions: for effect on tumors in an in vivo assay: administered as described (iv or oral formulation); for effect on tumor: daily dose of 1 mg/kg; for effect on tumor / tumor cytotoxicity / tumor growth: SCID mice; for tumor cytotoxicity: daily dose of 25-50 mg/kg; for tumor growth: daily oral dose of 10 mg/kg
Method: All animal experiments were performed in compliance with the guidelines of the Animal Research Committee of the University of California at Los Angeles. Animals were bought from Taconic and maintained in a laminar flow tower in a defined flora colony. LNCaP-AR and LNCaP-vector cells were maintained in RPMI medium supplemented with 10% FBS. 10^6 cells in 100 μl of 1:1 Matrigel to RPMI medium were injected subcutaneously into the flanks of intact or castrated male SCID mice. Tumor size was measured weekly in three dimensions (length×width×depth) using calipers. Mice were randomized to treatment groups when tumor size reached approximately 100 mm^3. Drugs were given orally everyday at the dose of 10 mg/kg.
Other doses were also tried.
Prostate cancer cell lines were used for xenografts. For example, a LNCaP xenograft, LAPC4 xenograft, LAPC9 xenograft, and xenografts of the hormone refractory counterparts of these cell lines were made. Other cell lines included V-cap, CWR22 and LAPC4 cell lines. Two cell lines that over express the androgen receptor were generated, LNCaP AR and LAPC4 AR. […] Under androgen ablation, the LNCaP AR and LAPC4 AR lines continued to grow, thus behaving like hormone refractory cells.
CB17 SCID mice were used in the study.
Injections were made subcutaneously on the right flank of the mouse. […] In addition, because of the usage of Matrigel, injection of no more than 200 μl was found appropriate. Injection of 100-200 μl was found appropriate. Injecting too large a volume created leakage upon needle withdrawal.

[5] = Stability of intravenous formulation (DMSO/PBS solution) at room temperature; assay type: physicochemical; conditions: 10-25% DMSO, balance PBS
Method: A compound presently disclosed, for example, compound A51 or A52, can be in a formulation suitable for intravenous dosing. In an embodiment, the compound is dissolved in from about 10% to about 25% dimethylsulfoxide (DMSO). 1× phosphate buffered saline (PBS) is then mixed into the solution as the balance, and the solution is sonicated with a water bath sonicator until it is homogeneous.
At a compound concentration of 1.5 mg/mL, 5 minutes of sonication may be sufficient to dissolve the compound. At a compound concentration of 2 mg/ml, more than 5 minutes of sonication may be required to dissolve the compound and a polyethylene glcyol can be added to keep the compound in suspension. For example, 5 to 40% PEG-400 (a polyethylene glycol), such as, 5-10% PEG-400, can be added.

[6] = Solubility in ethanol; assay type: physicochemical
Source text: (§1) When administered to mice, hardening of the skin and skin irritation around the injection site was observed, and this was attributed to the use of DMSO.

[7] = Stability of the compounds in vivo with ethanol as solvent; conditions: mice
Source text: as §1

[8] = Suspension stability of oral formulation (DMSO/CMC/Tween 80/water); assay type: physicochemical; conditions: oral formulation: DMSO, CMC, Tween 80, water; about 1.5 mg/mL
Method: In an embodiment, the compound is dissolved in 100% DMSO.
Additional chemicals can be added, such as a carboxymethylcellulose, a polysorbate, or water. […] The solution is mechanically homogenized for at least 30 seconds.
That is, more than 10% DMSO was not required.

| antagonist effect on HS cancer cells (secreted PSA) [1] | solubility in ethanol [6] | effect of ethanol on stability of the compounds in vivo [7] | time the compound stays in suspension [8] | Structure (SMILES) | antagonist effect on HR cancer cells (secreted PSA) [2] | antagonist effect on HS cancer cells (MTS growth inhibition) [3] | effect on tumors in an in vivo assay [4] | effect on tumor [4] | tumor cytotoxicity [4] | tumor growth [4] | stability of solution [5] | Luciferase activity ([4]; FIG. 6, after 17 days of treatment) |
| --- | --- | --- | --- | --- | --- | --- | --- | --- | --- | --- | --- | --- |
| antagonist effect | soluble in ethanol | reduce the stability | only a couple of hours | Cc1ccc(N2C(=S)N(c3cnc(C#N)c(C(F)(F)F)c3)C(=O)C23CCC3)cc1 [A51, 5-(8-oxo-6-thioxo-5-(4-methylphenyl)-5,7-diazaspiro[3.4]oct-7yl)-3-trifluoromethylpyridine-2-carbonitrile] | antagonist effect | antagonist effect | beneficial effect on tumors | mild effect | some tumor cytotoxicity | completely retard tumor growth | stable at room temperature for at least a week | – |
| – | soluble in ethanol | reduce the stability | only a couple of hours | CNC(=O)c1ccc(N2C(=S)N(c3cnc(C#N)c(C(F)(F)F)c3)C(=O)C23CCC3)cc1F [A52, 4-[7-(6-cyano-5-trifluoromethylpyridin-3-yl)-8-oxo-6-thioxo-5,7-diazaspiro[3,4]oct-5-yl]-2-fluoro-N-methylbenzamide] | – | antagonist effect | beneficial effect on tumors | mild effect | some tumor cytotoxicity | completely retard tumor growth | stable at room temperature for at least a week | disappearance of Luciferase activity |
